# Measured values published in ChEMBL document CHEMBL3739285, “Fluorescent sulfonamide carbonic anhydrase inhibitors incorporating 1,2,3-triazole moieties: Kinetic and X-ray crystallographic studies” (Bioorg Med Chem, 2016).
# Experiments:
# [1] = Solubility of the compound in phosphate buffer at pH 7.4; type: physicochemical
# Carbonic anhydrase 14 = Carbonic anhydrase 14 (Homo sapiens, UniProt Q9ULX7)
# Description: Inhibition of human carbonic anhydrase-14 preincubated for 15 mins by stopped flow CO2 dehydration method
# Carbonic anhydrase 12 = Carbonic anhydrase 12 (Homo sapiens, UniProt O43570); assay: Inhibition of human carbonic anhydrase-12 preincubated for 15 mins by stopped flow CO2 dehydration method
# Carbonic anhydrase 9 = Carbonic anhydrase 9 (Homo sapiens, UniProt Q16790)
# Description: Inhibition of human carbonic anhydrase-9 preincubated for 15 mins by stopped flow CO2 dehydration method
# Carbonic anhydrase 1 = Carbonic anhydrase 1 (Homo sapiens, UniProt P00915); assay: Inhibition of human carbonic anhydrase-1 preincubated for 15 mins by stopped flow CO2 dehydration method
# Carbonic anhydrase 2 = Carbonic anhydrase 2 (Homo sapiens, UniProt P00918); assay: Inhibition of human carbonic anhydrase-2 preincubated for 15 mins by stopped flow CO2 dehydration method
# Homo sapiens = species: Homo sapiens; assay: Selectivity ratio of Ki for human carbonic anhydrase-9 to Ki for human carbonic anhydrase-2
# Sequence of Carbonic anhydrase 14 (Q9ULX7 whole entry): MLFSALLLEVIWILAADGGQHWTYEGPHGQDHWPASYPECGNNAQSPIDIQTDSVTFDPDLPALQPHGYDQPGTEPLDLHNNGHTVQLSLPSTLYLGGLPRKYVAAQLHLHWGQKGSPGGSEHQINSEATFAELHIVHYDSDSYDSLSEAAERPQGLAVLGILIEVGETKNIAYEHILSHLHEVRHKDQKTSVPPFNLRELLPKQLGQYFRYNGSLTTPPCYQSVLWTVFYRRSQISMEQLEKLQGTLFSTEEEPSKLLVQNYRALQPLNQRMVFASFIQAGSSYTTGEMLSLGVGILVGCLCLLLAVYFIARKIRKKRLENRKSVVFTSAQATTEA
# Sequence of Carbonic anhydrase 12 (O43570 whole entry): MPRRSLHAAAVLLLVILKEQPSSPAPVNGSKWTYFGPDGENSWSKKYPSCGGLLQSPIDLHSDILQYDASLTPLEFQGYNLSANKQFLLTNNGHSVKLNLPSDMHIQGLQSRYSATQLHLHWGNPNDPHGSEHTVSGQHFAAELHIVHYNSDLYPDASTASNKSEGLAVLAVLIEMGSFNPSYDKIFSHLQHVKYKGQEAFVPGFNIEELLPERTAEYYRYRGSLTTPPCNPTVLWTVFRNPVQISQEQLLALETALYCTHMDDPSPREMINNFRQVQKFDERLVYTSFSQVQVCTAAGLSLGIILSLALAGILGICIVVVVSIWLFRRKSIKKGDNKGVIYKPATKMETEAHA
# Sequence of Carbonic anhydrase 1 (P00915 whole entry): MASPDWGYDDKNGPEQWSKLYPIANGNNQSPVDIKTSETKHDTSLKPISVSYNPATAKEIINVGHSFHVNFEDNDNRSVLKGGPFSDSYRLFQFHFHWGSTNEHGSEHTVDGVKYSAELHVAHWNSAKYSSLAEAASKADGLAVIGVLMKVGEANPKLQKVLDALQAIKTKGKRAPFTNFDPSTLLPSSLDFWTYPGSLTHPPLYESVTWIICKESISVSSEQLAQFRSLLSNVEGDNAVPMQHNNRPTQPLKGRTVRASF
solubility [1],Ki (Carbonic anhydrase 14),Ki (Carbonic anhydrase 12),Ki (Carbonic anhydrase 9),Ki (Carbonic anhydrase 1),Ki (Carbonic anhydrase 2),Ratio Ki (Homo sapiens),SMILES
1200 µg/mL,41 nM,7 nM,–,–,–,–,NS(=O)(=O)c1ccc(CNC(=S)Nc2ccc(-c3c4ccc(=O)cc-4oc4cc(O)ccc34)c(C(=O)O)c2)cc1
–,–,20.5 nM,36.9 nM,7.63 µM,127 nM,–,NS(=O)(=O)c1cccc(-n2cc(CNC(=S)Nc3ccc(-c4c5ccc(=O)cc-5oc5cc(O)ccc45)c(C(=O)O)c3)nn2)c1
–,31.4 nM,10.7 nM,24.3 nM,6.42 µM,88 nM,3.62,CN(C)c1ccc2c(-c3ccc(NC(=S)NCc4cn(-c5cccc(S(N)(=O)=O)c5)nn4)cc3C(=O)O)c3ccc(=[N+](C)C)cc-3oc2c1
–,33 nM,–,–,–,–,–,NS(=O)(=O)c1ccc(CCNC(=S)Nc2ccc(-c3c4ccc(=O)cc-4oc4cc(O)ccc34)c(C(=O)O)c2)cc1
3800 µg/mL,–,4.1 nM,8.1 nM,2.56 µM,36 nM,–,NS(=O)(=O)c1ccc(-n2cc(CNC(=S)Nc3ccc(-c4c5ccc(=O)cc-5oc5cc(O)ccc45)c(C(=O)O)c3)nn2)cc1
